Laboratory results: ChEMBL document CHEMBL1136423, “Phosphate ester serum albumin affinity tags greatly improve peptide half-life in vivo” (Bioorg Med Chem Lett, 2003)
pIC50: −log10 of the molar value. Where a SMILES comes first, the peptide text is derived from it. Bridges are numbered along the chain shown (N, C = ends). The star is where a group is joined. X3 = O=C(CCCCCOP(=O)(O)OC1CCC(c2ccccc2)(c2ccccc2)CC1)*; X4 = O=C(CCC(=O)*)NS(=O)(=O)c1ccc2ccccc2c1; X2 = O=C(CCCCCOP(=O)(O)Oc1ccc2ccccc2c1)*; X1 = O=C(CCCCCOP(=O)(O)OCCCCCc1ccccc1)*

Key:
[1] = Clearance was measured at the concentration of 2.0 mg/kg in rabbit blood sample; format: ADME, organism-based, Oryctolagus cuniculus; design: dose 2 mg/kg
[2] = Half-life was measured at the concentration of 2.0 mg/kg in rabbit blood sample; format: ADME, organism-based, Oryctolagus cuniculus; design: dose 2 mg/kg
Coagulation factor VII [3] = target: T1, Coagulation factor VII (Homo sapiens, UniProt P08709); assay: Inhibitory activity for the compound against coagulation factor VIIa in presence of 1% ovalbumin
T1 sequence (P08709 whole entry): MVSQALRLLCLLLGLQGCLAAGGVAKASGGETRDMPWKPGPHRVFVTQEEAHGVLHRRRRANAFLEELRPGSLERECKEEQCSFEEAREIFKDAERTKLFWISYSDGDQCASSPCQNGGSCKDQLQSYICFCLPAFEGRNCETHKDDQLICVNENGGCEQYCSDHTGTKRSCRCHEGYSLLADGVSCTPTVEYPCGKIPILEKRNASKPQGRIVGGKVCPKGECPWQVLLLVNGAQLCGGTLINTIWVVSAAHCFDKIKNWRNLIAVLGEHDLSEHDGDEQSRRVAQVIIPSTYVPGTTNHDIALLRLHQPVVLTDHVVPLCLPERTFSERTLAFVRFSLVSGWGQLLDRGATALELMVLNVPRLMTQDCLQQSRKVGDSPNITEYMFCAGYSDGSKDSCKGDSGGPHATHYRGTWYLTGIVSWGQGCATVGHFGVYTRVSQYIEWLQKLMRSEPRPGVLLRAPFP

Coagulation factor VII [4] = target: T1, Coagulation factor VII; assay: Inhibitory activity for the compound against coagulation factor VIIa in presence of 0.1% human serum albumin
Coagulation factor VII [5] = target: T1, Coagulation factor VII; assay: Inhibitory activity for the compound against coagulation factor VIIa in presence of 0.1% rabbit serum albumin
Albumin = Albumin (Homo sapiens, UniProt P02768); assay: Compound was measured for its retention time in human serum albumin;where k`=tt-t0/t0; tt=retention time of compound and t0=retention time of DMSO
Albumin, sequence (P02768 whole entry): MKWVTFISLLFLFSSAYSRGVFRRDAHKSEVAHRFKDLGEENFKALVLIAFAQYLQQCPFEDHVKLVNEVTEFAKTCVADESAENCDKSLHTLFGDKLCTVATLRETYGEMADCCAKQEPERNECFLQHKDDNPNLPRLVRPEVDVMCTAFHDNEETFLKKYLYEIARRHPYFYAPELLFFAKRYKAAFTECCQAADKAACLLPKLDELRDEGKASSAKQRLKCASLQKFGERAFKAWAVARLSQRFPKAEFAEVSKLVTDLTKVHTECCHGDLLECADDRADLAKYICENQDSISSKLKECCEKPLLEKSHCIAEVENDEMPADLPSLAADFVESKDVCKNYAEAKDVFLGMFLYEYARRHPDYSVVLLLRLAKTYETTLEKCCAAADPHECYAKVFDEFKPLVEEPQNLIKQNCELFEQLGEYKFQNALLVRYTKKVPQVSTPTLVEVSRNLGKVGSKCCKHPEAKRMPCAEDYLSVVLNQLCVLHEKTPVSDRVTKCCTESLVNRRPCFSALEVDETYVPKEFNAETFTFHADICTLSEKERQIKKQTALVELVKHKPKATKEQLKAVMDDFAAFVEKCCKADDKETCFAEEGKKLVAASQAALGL

[6] = Clearance was measured at the concentration of 1.11 mg/kg in rabbit blood sample; format: ADME, organism-based, Oryctolagus cuniculus; design: dose 1.11 mg/kg
[7] = Half-life was measured at the concentration of 1.11 mg/kg in rabbit blood sample; format: ADME, organism-based, Oryctolagus cuniculus; design: dose 1.11 mg/kg

SMILES | clearance [1] | half-life [2] | pIC50 (Coagulation factor VII [3]) | pIC50 (Coagulation factor VII [4]) | pIC50 (Coagulation factor VII [5]) | k'/k'+1 (Albumin) | clearance [6] | half-life [7]
CC[C@H](C)[C@@H]1NC(=O)[C@H](CCCN=C(N)N)NC(=O)[C@@H]2CCCN2C(=O)[C@H](CC(N)=O)NC(=O)[C@H](CC(=O)O)NC(=O)[C@@H](NC(=O)[C@H](CC(C)C)NC(=O)[C@H](C)NC(=O)CCCCCOP(=O)(O)OC2CCC(c3ccccc3)(c3ccccc3)CC2)CSSC[C@@H](C(=O)N[C@@H](CCC(N)=O)C(=O)N[C@@H](Cc2ccccc2)C(=O)N[C@H](C(=O)N[C@@H](CCC(=O)O)C(=O)NCC(N)=O)C(C)C)NC(=O)[C@H](Cc2ccc(O)cc2)NC(=O)[C@H](Cc2c[nH]c3ccccc23)NC(=O)[C@H](CCCN=C(N)N)NC(=O)[C@H](CC(=O)O)NC1=O (X3-ALCDNPRIDRWYCQFVEG-NH2; disulfide 3-13) | 0.0111 L/h/kg | 222 min | 8.40 | 8.47 | 7.05 | 0.78 |  | 
CC[C@H](C)[C@@H]1NC(=O)[C@H](CCCN=C(N)N)NC(=O)[C@@H]2CCCN2C(=O)[C@H](CC(N)=O)NC(=O)[C@H](CC(=O)O)NC(=O)[C@@H](NC(=O)[C@H](CC(C)C)NC(=O)[C@H](C)NC(=O)CCCCCOP(=O)(O)OCCCCCc2ccccc2)CSSC[C@@H](C(=O)N[C@@H](CCC(N)=O)C(=O)N[C@@H](Cc2ccccc2)C(=O)N[C@H](C(=O)N[C@@H](CCC(=O)O)C(=O)NCC(N)=O)C(C)C)NC(=O)[C@H](Cc2ccc(O)cc2)NC(=O)[C@H](Cc2c[nH]c3ccccc23)NC(=O)[C@H](CCCN=C(N)N)NC(=O)[C@H](CC(=O)O)NC1=O (X1-ALCDNPRIDRWYCQFVEG-NH2; disulfide 3-13) | 0.0303 L/h/kg | 79.1 min | 8.70 | 8.62 | 7.66 | 0.92 |  | 
CC[C@H](C)[C@@H]1NC(=O)[C@H](CCCN=C(N)N)NC(=O)[C@@H]2CCCN2C(=O)[C@H](CC(N)=O)NC(=O)[C@H](CC(=O)O)NC(=O)[C@@H](NC(=O)[C@H](CC(C)C)NC(=O)[C@H](C)NC(C)=O)CSSC[C@@H](C(=O)N[C@@H](CCC(N)=O)C(=O)N[C@@H](Cc2ccccc2)C(=O)N[C@H](C(=O)N[C@@H](CCC(=O)O)C(=O)NCC(N)=O)C(C)C)NC(=O)[C@H](Cc2ccc(O)cc2)NC(=O)[C@H](Cc2c[nH]c3ccccc23)NC(=O)[C@H](CCCN=C(N)N)NC(=O)[C@H](CC(=O)O)NC1=O (Ac-ALCDNPRIDRWYCQFVEG-NH2; disulfide 3-13) |  |  | 8.04 | 7.96 | 8.01 | 0.21 | 1.61 L/h/kg | 4.18 min
CC[C@H](C)[C@@H]1NC(=O)[C@H](CCCN=C(N)N)NC(=O)[C@@H]2CCCN2C(=O)[C@H](CC(N)=O)NC(=O)[C@H](CC(=O)O)NC(=O)[C@@H](NC(=O)[C@H](CC(C)C)NC(=O)[C@H](C)NC(=O)CCC(=O)NS(=O)(=O)c2ccc3ccccc3c2)CSSC[C@@H](C(=O)N[C@@H](CCC(N)=O)C(=O)N[C@@H](Cc2ccccc2)C(=O)N[C@H](C(=O)N[C@@H](CCC(=O)O)C(=O)NCC(N)=O)C(C)C)NC(=O)[C@H](Cc2ccc(O)cc2)NC(=O)[C@H](Cc2c[nH]c3ccccc23)NC(=O)[C@H](CCCN=C(N)N)NC(=O)[C@H](CC(=O)O)NC1=O (X4-ALCDNPRIDRWYCQFVEG-NH2; disulfide 3-13) | 0.0984 L/h/kg | 30 min | 8.44 | 8.60 | 7.62 | 0.97 |  | 
CC[C@H](C)[C@@H]1NC(=O)[C@H](CCCN=C(N)N)NC(=O)[C@@H]2CCCN2C(=O)[C@H](CC(N)=O)NC(=O)[C@H](CC(=O)O)NC(=O)[C@@H](NC(=O)[C@H](CC(C)C)NC(=O)[C@H](C)NC(=O)CCCCCOP(=O)(O)Oc2ccc3ccccc3c2)CSSC[C@@H](C(=O)N[C@@H](CCC(N)=O)C(=O)N[C@@H](Cc2ccccc2)C(=O)N[C@H](C(=O)N[C@@H](CCC(=O)O)C(=O)NCC(N)=O)C(C)C)NC(=O)[C@H](Cc2ccc(O)cc2)NC(=O)[C@H](Cc2c[nH]c3ccccc23)NC(=O)[C@H](CCCN=C(N)N)NC(=O)[C@H](CC(=O)O)NC1=O (X2-ALCDNPRIDRWYCQFVEG-NH2; disulfide 3-13) | 0.0424 L/h/kg | 34.8 min | 8.72 | 8.70 | 8.04 | 0.92 |  | 
